Test results reported in US11401247B2, “Thiazole-5-carboxylic acid derivative and preparation method and use thereof” (XIANGBEI WELMAN PHARMACEUTICAL CO., LTD, priority 2018, dated 2022).
Read-outs that look alike come from different tables or passages of the source.

What was measured:
[1] = system: hyperuricemia rats; assay: pharmacodynamic screening in rat hyperuricemia model (exogenous uric acid administered, uric acid decomposition inhibited); assay type: in vivo, SD rats; settings: for Serum uric acid level, Value after 3 h of drug administration: 3 h after first administration, model group 174.4 ± 39.9, blank 53.9 ± 12.8; for uric acid-lowering effect (in words): 3 h after drug administration, febuxostat and ethyl ester 14 mg/kg oral; for uric acid-lowering effect (in words) / p, uric acid level 3 h after drug administration compared with the blank group: F compounds 10 mg/kg; for p, uric acid level 3 h after drug administration compared with the blank group: febuxostat 14 mg/kg oral
[2] = system: hyperuricemia rats; assay: dose-effect relationship study in rat hyperuricemia model; assay type: in vivo, SD rats; settings: 3 h after first administration, model group 226.2 ± 35.2, blank 37.4 ± 5.1
Procedure: In order to further study the pharmacological activity of the compounds of the present disclosure, as well as the relationship between the activity and the dose, this example selected several compounds of the present disclosure to conduct a dose-effect relationship study in a rat model, in which exogenous uric acid was administered and uric acid decomposition was inhibited simultaneously. A positive drug was used as a control.
1. Experimental animals: Male SPF grade SD rats weighing 110-150 grams. […] The animals were free to drink and eat. All cages were sterilized at 121° C., feed was sterilized by irradiation, and water was sterilized purified water.
2. Experimental drugs: F-1C, F-2C, F-3A, 1.0 g for each compound; febuxostat (positive drug) 1.0 g; febuxostat ethyl ester (ethyl 2-[3-cyano-4-isobutoxyphenyl]-4-methylthiazole-5-carboxylate) 1.0 g;
3.1 Formulation of F-1C, F-2C, F-3A: Tor each of the compounds, take 100 mg, add 20 ml of 0.5% sodium carboxymethyl cellulose and grind, and then dilute to 100 ml.
3.2 Take 100 mg of febuxostat, add 20 ml of 0.5% sodium carboxymethyl cellulose and grind, and then dilute to 100 ml.
Except the blank group, the rest rats were modeled for 15 days and then their serum uric acid levels were detected. The rats were equally divided into several groups according to the detected uric acid levels thereof.
F-1C, F-2C and F-3A groups: each compound was taken orally at 3 doses, i.e., 2.5, 5 and 10 mg/kg; QD; and 10 animals for each dose group.
Febuxostat group: oral administration of 10 mg/kg, QD, and 10 animals.
Febuxostat ethyl ester group: oral administration of 10 mg/kg, QD, and 10 animals.
The blank group was not administrated with any drug. Each of the rest groups was orally administrated with oteracil potassium 1 g/kg and uric acid 0.3 g/kg and intraperitoneally injected with 0.1 g/kg uric acid (dissolved in 0.5% sodium carboxymethyl cellulose), once a day on schedule, for 15 days. 0.5 ml of blood samples was drawn from orbit before the experiment and […] after the modelling, respectively, to separated serum for determining serum uric acid levels.
After successful modeling, the rats were equally divided into several groups according to the serum uric acid values thereof, and then were intragastrically administrated with the test drugs. Three hours after the first administration, 0.5 ml of orbital venous blood was drawn from the orbit of the rats, centrifuged at 3000 RPM for 15 min, to obtain for determining the serum uric acid level of each rat.
Data were expressed by mean±standard deviation (′x±SD), and analyzed by Excel 7.0 and SPPS 13.0 for Windows software. Q-test was used for the comparison between groups, and the self-paired t-test was used for the comparison of a group before and after administration. It indicated significant difference when P<0.05.

[3] = system: ICR mice; settings: for Autopsy results of survival animals / animal deaths within 24 hours from the administration / Abnormal reactions within 12 hours from ig administration: formal test; for Autopsy results of survival animals: 3000 mg/kg ig; for animal deaths within 24 hours from the administration: all dose groups; for animal deaths within 24 hours from the administration / Abnormal reactions within 12 hours from ig administration: febuxostat high-dose group; for Abnormal reactions within 12 hours from ig administration: F compounds 3000 mg/kg; for Number of dead animals: 10 mice; for death, preliminary experiments / toxic reactions, preliminary experiments: intragastric 1600 mg/kg
[4] = in vivo; settings: mouse, po

Structure (SMILES)	Serum uric acid level, Value after 3 h of drug administration ([1]; 10 mg/kg oral)	uric acid-lowering effect (in words) [1]	p, uric acid level 3 h after drug administration compared with the blank group [1]	Serum uric acid content, Value after 3 h of drug administration ([2]; 2.5 mg/kg oral)	Serum uric acid content, Value after 3 h of drug administration ([2]; 5 mg/kg oral)	Serum uric acid content, Value after 3 h of drug administration ([2]; 10 mg/kg oral)	Autopsy results of survival animals [3]	animal deaths within 24 hours from the administration [3]	Abnormal reactions within 12 hours from ig administration [3]	Number of dead animals ([3]; ig 3000 mg/kg)	death, preliminary experiments ([3]; mice)	toxic reactions, preliminary experiments ([3]; mice)	LD50 at 14 days [4] [mg/kg]	LD50 at 14 days ([4]; 3000 mg/kg) [mg/kg]	Serum uric acid level, Value after 3 h of drug administration ([1]; 14 mg/kg oral)	other results
Cc1nc(-c2ccc(OCC(C)C)c(C#N)c2)sc1C(=O)OC(C)Cl (stereo not shown) [Compound F-1C]	64.2 ± 28.1^a3b3 μmol/L	very obvious uric acid-lowering effects	no significant difference	189.8 ± 25.3^a3 μmol/L	146.9 ± 19.5^a3, b3 μmol/L	100.1 ± 25.8^a3, b3, c3 μmol/L	No obvious abnormalities were observed in the organs	no animal deaths were observed	no abnormalities were observed	0	no animal died	no obvious toxicity symptom was observed	3000	≥ 3000		
Cc1nc(-c2ccc(OCC(C)C)c(C#N)c2)sc1C(=O)NC(CC(=O)O)C(=O)O (stereo not shown) [Compound F-2C]	68.6 ± 19.2^a3b3c1 μmol/L			172.7 ± 33.9^a3 μmol/L	131.9 ± 29.7^a3, b3 μmol/L	107.3 ± 21.2^a3, b3, c3 μmol/L	No obvious abnormalities were observed in the organs	no animal deaths were observed	no abnormalities were observed	0	no animal died	no obvious toxicity symptom was observed				LD50/Maximum dose ([3]; ig once, mice, 14 days observation, Bliss method, febuxostat: LD50, F compounds: maximum administration dose, no deaths): 3000 mg/kg
Cc1nc(-c2ccc(OCC(C)C)c(C#N)c2)sc1C(=O)OCCN(C)CCO [Compound F-3A]	64.1 ± 16.1^a3b3 μmol/L	very obvious uric acid-lowering effects	no significant difference	173.4 ± 32.7^a3, b3 μmol/L	137.6 ± 24.3^a3, b3 μmol/L	82.3 ± 16.8^a3, b3, c3 μmol/L	No obvious abnormalities were observed in the organs	no animal deaths were observed	no abnormalities were observed	0	no animal died	no obvious toxicity symptom was observed	3000	≥ 3000		
CCOC(=O)c1sc(-c2ccc(OCC(C)C)c(C#N)c2)nc1C [Febuxostat ethyl ester, ethyl 2-[3-cyano-4-isobutoxyphenyl]-4-methylthiazole-5-carboxylate, reference compound]		inferior to febuxostat				177.3 ± 38.6^a3 μmol/L									113.9 ± 24.9^a3b3c3 μmol/L	
Cc1nc(-c2ccc(OCC(C)C)c(C#N)c2)sc1C(=O)O [Febuxostat, 2-[3-cyano-4-isobutoxyphenyl]-4-methylthiazole-5-carboxylic acid, reference compound]		good effect on lowering uric acid	< 0.001			140.8 ± 33.5^a3, b3 μmol/L		several animals of the high-dose group of febuxotan died			caused death in several mice		701 ± 47.6		86.6 ± 17.5^a3b3c3 μmol/L	Number of dead animals ([3]; ig 327.7 mg/kg): 0; Number of dead animals ([3]; ig 409.6 mg/kg): 0; Number of dead animals ([3]; ig 512 mg/kg): 1; Number of dead animals ([3]; ig 640 mg/kg): 3; Number of dead animals ([3]; ig 800 mg/kg): 6; Cause of death ([3]; mice after ig administration): toxicity to the urinary system
